Here are results for 13 compounds from ChEMBL document CHEMBL4229439, “Design, synthesis and antimycobacterial activity of 3,5-dinitrobenzamide derivatives containing fused ring moieties” (2018).

Assay [1] deals with Mycobacterium tuberculosis. Put plainly: Antimycobacterial activity against isoniazid/rifampicin-resistant Mycobacterium tuberculosis isolate 16833 after 7 days by Alamar blue assay. It counts as functional. The settings on record: isolate 16833, 168 h. In general terms: Resazurin is reduced to fluorescent resorufin, in cell work by metabolically active cells.
Assay [2] has as its system Mycobacterium tuberculosis. Briefly: Antimycobacterial activity against isoniazid/rifampicin-resistant Mycobacterium tuberculosis isolate 16995 after 7 days by Alamar blue assay. Type of assay: functional. The settings on record: isolate 16995, 168 h.
For assay [3], the system named is Mycobacterium tuberculosis. Put plainly: Antimycobacterial activity against isoniazid/rifampicin-resistant Mycobacterium tuberculosis isolate 16833 up to 10 ug/ml after 7 days by Alamar blue assay. It counts as functional, organism-based.
Assay [4] deals with Mycobacterium tuberculosis. Put plainly: Antimycobacterial activity against isoniazid/rifampicin-resistant Mycobacterium tuberculosis isolate 16995 up to 10 ug/ml after 7 days by Alamar blue assay. It counts as functional, organism-based.

Molecules are shown by their SMILES. ≈ marks a conversion by molar mass, not a printed value. Calls of active or inactive are those of the source. The calls are words filed in the database; no cut-off is given here.

As a reminder, the MIC is the lowest concentration that inhibits growth of the organism. High values mean weaker potency, low ones greater potency. Consider `COc1ccc(CN2Cc3ccc(CNC(=O)c4cc([N+](=O)[O-])cc([N+](=O)[O-])c4)cc3C2)cc1`, for which the minimal inhibitory concentration (MIC) in assay [1] came to 0.286 µg/mL (≈ 0.618 µM); in assay [2], 0.606 µg/mL (≈ 1.31 µM).

As to `O=c1nc(N2CCN(CC3CCCCC3)CC2)sc2c([N+](=O)[O-])cc(C(F)(F)F)cc12` [MACOZINONE], the minimum inhibitory concentration (MIC) in assay [1] and in assay [2] was below 0.016 µg/mL each time.

For the compound `CO[C@H]1/C=C/O[C@@]2(C)Oc3c(C)c(O)c4c(O)c(c(/C=N/N5CCN(C)CC5)c(O)c4c3C2=O)NC(=O)/C(C)=C\C=C\[C@H](C)[C@H](O)[C@@H](C)[C@@H](O)[C@@H](C)[C@H](OC(C)=O)[C@@H]1C` [RIFAMPIN], the MIC in assay [1] and in assay [2] was above 40 µg/mL in each case.

As for `O=C(NCc1ccc2c(c1)CCN(c1ccc(F)cc1)C2)c1cc([N+](=O)[O-])cc([N+](=O)[O-])c1`, the minimal inhibitory concentration (MIC) in assay [1] came out at 0.074 µg/mL (≈ 0.164 µM); in assay [2] it was 0.078 µg/mL (≈ 0.173 µM).

Consider `NNC(=O)c1ccncc1` [ISONIAZID], for which the MIC in assay [1] and in assay [2] was above 40 µg/mL in each case.

In the case of `O=C(NCc1ccc2c(c1)CCN(Cc1cccc(F)c1)C2)c1cc([N+](=O)[O-])cc([N+](=O)[O-])c1`, the minimum inhibitory concentration (MIC) was found to be 0.074 µg/mL (≈ 0.159 µM) in assay [1] and 0.076 µg/mL (≈ 0.164 µM) in assay [2].

Take `O=C(NCc1ccc2c(c1)CCN(Cc1ccc(Cl)cc1)C2)c1cc([N+](=O)[O-])cc([N+](=O)[O-])c1`: the results for the MIC in assay [1] and in assay [2] were 0.143 µg/mL (≈ 0.297 µM) and 0.077 µg/mL (≈ 0.16 µM), respectively.

For the compound `O=C(NCc1ccc2c(c1)CN(c1ccc(F)cc1)C2)c1cc([N+](=O)[O-])cc([N+](=O)[O-])c1`, the minimum inhibitory concentration (MIC) was 0.066 µg/mL (≈ 0.151 µM) in assay [1] and 0.147 µg/mL (≈ 0.337 µM) in assay [2].

As to `O=C(NCc1ccc2c(c1)CN(Cc1ccc(OC(F)(F)F)cc1)C2)c1cc([N+](=O)[O-])cc([N+](=O)[O-])c1`, the MIC in assay [1] was determined as 0.565 µg/mL (≈ 1.09 µM); in assay [2], 0.61 µg/mL (≈ 1.18 µM).

Turning to `O=C(NCc1ccc2c(c1)CCN(c1ccc(C(F)(F)F)cc1)C2)c1cc([N+](=O)[O-])cc([N+](=O)[O-])c1`, the minimal inhibitory concentration (MIC) in assay [1] amounted to 0.152 µg/mL (≈ 0.304 µM); in assay [2] it was 0.302 µg/mL (≈ 0.603 µM).

Regarding `O=C(NCc1ccc2c(c1)CNC2)c1cc([N+](=O)[O-])cc([N+](=O)[O-])c1`, the result in assay [3] and in assay [4] was inactive. Moreover, the MIC in assay [1] and in assay [2] was above 10 µg/mL each time.

`O=C(NCc1ccc2c(c1)CN(Cc1ccc(C(F)(F)F)cc1)C2)c1cc([N+](=O)[O-])cc([N+](=O)[O-])c1`: the results for the MIC in assay [1] and in assay [2] were 0.278 µg/mL (≈ 0.556 µM) and 0.308 µg/mL (≈ 0.615 µM), respectively.

For `O=C(NCc1ccc2c(c1)CN(Cc1ccc(F)cc1)C2)c1cc([N+](=O)[O-])cc([N+](=O)[O-])c1`, the MIC in assay [1] was found to be 0.073 µg/mL (≈ 0.162 µM); in assay [2], 0.115 µg/mL (≈ 0.255 µM).
